# Source: patent publication US9394555B2, “Compositions comprising a polypeptide having cellulolytic enhancing activity and a dioxy compound and uses thereof” (priority 2010, dated 2016)
# Columns and labels:
# [1] = system: Thielavia terrestris GH61E polypeptide; assay: Variable pH PASC conversion assay (Examples 29, 30) with Thielavia terrestris GH61E polypeptide; format: biochemical; conditions: gallic acid 0.2% w/w + Thielavia terrestris GH61E polypeptide (10 mg/g) + beta-glucosidase (10 mg/g), 72 hours, 50° C.
# [2] = system: T. terrestris GH61E polypeptide; assay: Microcrystalline cellulose conversion assay I (Examples 8, 9) with T. terrestris GH61E polypeptide; format: biochemical, Thielavia terrestris; conditions: dioxy compound 0.3% w/w + T. terrestris GH61E polypeptide (10 mg/g) + endoglucanase II + beta-glucosidase (5 mg/g each), 96 hours
# Protocol: A 5% microcrystalline cellulose slurry was prepared by addition of 2.5 g of AVICEL®PH101 (Sigma-Aldrich, St. Louis, Mo., USA) to a graduated 50 ml screw-cap conical tube followed by 15 ml of 1 M sodium acetate pH 5 and 1 ml of 100 mM MnSO4 and approximately 20 ml of deionizer water. Each conical tube was then mixed thoroughly by shaking/vortexing, and adjusted to 50 ml total with deionized water and mixed again. Contents of the tube were then quickly transferred to a 100 ml beaker and stirred rapidly with a magnetic stirrer. Five hundred μl aliquots of the 5% AVICEL® slurry were pipetted into wells of a 2.0 ml 96-deepwell plate (Axygen, Union City, Calif., USA) using a 1000 μl micropipette with a wide aperture tip (end of tip cut off about 2 mm from the base). Three hundred μl of either deionized water or a 1% dioxy compound solution (dissolved in deionized water) was added to each well.
# The dioxy compounds assayed include caffeic acid (Sigma-Aldrich, St. Louis, Mo., USA), dichlorophenolindophenol (DCPIP; Sigma-Aldrich, St. Louis, Mo., USA), ethyl gallate (Sigma-Aldrich, St. Louis, Mo., USA), gallic acid (Sigma-Aldrich, St. Louis, Mo., USA), 3,4-dihydroxybenzoic acid (Sigma-Aldrich, St. Louis, Mo., USA), pyrocatechol (Sigma-Aldrich, St. Louis, Mo., USA), pyrogallol (Sigma-Aldrich, St. Louis, Mo., USA), sinapinic acid (3,5 dimethoxy-4-hydroxy cinnamic acid; Apin Chemicals LTD, Abingdon, UK), and tannic acid (Sigma-Aldrich, St. Louis, Mo., USA).
# Enzyme mixtures were prepared and then added simultaneously to all wells in a volume of 200 μl, for a total of 1 ml in each reaction. […] All experiments reported were performed in triplicate.
# After approximately 4 days, the deep-well plate was removed from the incubator and chilled overnight to 4° C. The plate was then mixed well by inversion and briefly centrifuged at 52×g in a SORVALL® RT7 centrifuge (Thermo Fisher Scientific, Waltham, Mass., USA) for 10 seconds. Samples were then mixed by pipetting, and 200 μl from each well were transferred to a MULTISCREEN® HV centrifuge filter plate assembly (Millipore, Bedford, Mass., USA). The centrifuge filter plate assembly was centrifuged at 2000 rpm in a SORVALL® RT7 centrifuge for 20 minutes. […] Sugars were detected using a refractive index detector (Agilent Technologies, Inc., Santa Clara, Calif., USA) with quantification by integration compared to purified sugar standards.
# In this assay only glucose was measured since beta-glucosidase was at high levels in all samples but the controls.
# A limit digest was performed to determine the total concentration accessible glucose equivalents using 100 mg of T. reesei cellulase (CELLIC™ CTec, Novozymes A/S, Bagsvaerd, Denmark) per gram cellulose, Triplicate data points were averaged and standard deviation was calculated.
# [3] = molecular target: T. aurantiacus GH61A polypeptide (Thermoascus aurantiacus, UniProt G3XAP7, N13Y); assay: Phosphoric acid swollen cellulose (PASC) hydrolysis assay (Examples 18, 19); format: biochemical; conditions: T. aurantiacus GH61A polypeptide (20 mg/g) + A. oryzae CEL3A beta-glucosidase (20 mg/g), no gallic acid; 72 hours, 50° C.
# Protocol: A 1% phosphoric acid swollen cellulose (PASC) slurry was prepared from AVICEL® PH101 using the protocol described by Zhang et al., 2006, Biomacromolecules 7: 644-648.
# The 1.0% PASC slurry prepared as described in Example 17 was thoroughly resuspended by shaking, and quickly transferred to a 100 ml beaker and stirred rapidly with a magnetic stirrer. Five hundred μl aliquots of the 1.0% PASC slurry were pipetted into wells of a 2.0 ml 96-deepwell plate (Axygen, Union City, Calif., USA) using a 1000 μl micropipette with a wide aperture tip (end of tip cut off about 2 mm from the base). One hundred μl of 10 mM MnSO4-500 mM sodium acetate pH 5 were then added to each well. […]
# Primary analysis of the hydrolysis reactions was performed using an AGILENT® 1100 HPLC with CHEMSTATION® software equipped with an AMINEX™ HPX-87H column. […] Sugars were detected using a refractive index detector with quantification by integration compared to purified sugar standards.
# All HPLC data processing was performed using MICROSOFT EXCEL™ software. […] In this assay only glucose was measured since beta-glucosidase was at high levels in all samples but the controls. Percent conversion was calculated using Equation 1. Triplicate data points were averaged and standard deviation was calculated. […]
# Data were collected and analyzed, as described in Example 18, after 72 hours of incubation at 50° C.
Molecule,conversion of phosphoric acid swollen cellulose ([1]; pH 4) [%],conversion of phosphoric acid swollen cellulose ([1]; pH 5) [%],conversion of phosphoric acid swollen cellulose ([1]; pH 6) [%],conversion of phosphoric acid swollen cellulose ([1]; pH 7.5) [%],conversion of microcrystalline cellulose ([2]; 50° C.) [%],conversion of microcrystalline cellulose ([2]; 60° C.) [%],conversion of PASC [3] [%]
O=C(O)c1cc(O)c(O)c(O)c1 [gallic acid],36.3±3.2,41.7±3.9,33.7±0.2,23.8±3.0,9.3±0.1,7.9±0.1,–
"T. aurantiacus GH61A polypeptide: GH61A polypeptide having cellulolytic enhancing activity (SEQ ID NO: 14), recombinantly produced in Aspergillus oryzae JaL250 (protein, listed as Thermoascus aurantiacus) MSFSKIIATAGVLASASLVAGHGFVQNIVIDGKYYGGYLVNQYPYMSNPPEVIAWSTTATDLGFVDGTGYQTPDIICHRGAKPGALTAPVSPGGTVELQWTPWPDSHHGPVINYLAPCNGDCSTVDKTQLEFFKIAESGLINDDNPPGIWASDNLIAANNSWTVTIPTTIAPGNYVLRHEIIALHSAQNQDGAQNYPQCINLQVTGGGSDNPAGTLGTALYHDTDPGILINIYQKLSSYIIPGPPLYTG",–,–,–,–,–,–,2.6±0.1
